The test system of this assay is L1210 leukemia ip in BDF1 mice, survival T/C. Put plainly: NCI In Vivo Anticancer Drug Screen. Data for tumor model L1210 Leukemia (intraperitoneal) in B6D2F1 (BDF1) mice. To be noted: endpoint: mean survival time, higher = longer survival. The gist of the method: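 Value reflects the ratio of survival in compound-treated mice to survival in vehicle-treated controls, with both groups carrying the same transplanted tumor.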

[1] abbreviates: dose: 100.0 mg/kg/injection, schedule: Q01DX009 (ip), vehicle: Klucel (hydroxypropylcellulose) (HPC).
[2] abbreviates: dose: 100.0 mg/kg/injection, schedule: Q04DX003 (ip), vehicle: Klucel (hydroxypropylcellulose) (HPC).
[3] abbreviates: dose: 200.0 mg/kg/injection, schedule: Q01DX009 (ip), vehicle: Klucel (hydroxypropylcellulose) (HPC).
Setting [4] is: dose: 200.0 mg/kg/injection, schedule: Q04DX003 (ip), vehicle: Klucel (hydroxypropylcellulose) (HPC).
Setting [5] is: dose: 400.0 mg/kg/injection, schedule: Q01DX009 (ip), vehicle: Klucel (hydroxypropylcellulose) (HPC).
Setting [6] is: dose: 400.0 mg/kg/injection, schedule: Q04DX003 (ip), vehicle: Klucel (hydroxypropylcellulose) (HPC).
[7] abbreviates: dose: 100.0 mg/kg/injection, schedule: Q01DX001 (ip), vehicle: saline with Tween-80.
The mark [8] stands for this setting: dose: 100.0 mg/kg/injection, schedule: Q01DX009 (ip), vehicle: saline with Tween-80.
The mark [9] stands for this setting: dose: 100.0 mg/kg/injection, schedule: Q04DX002 (ip), vehicle: saline with Tween-80.
Where [10] appears, read: dose: 100.0 mg/kg/injection, schedule: Q04DX003 (ip), vehicle: saline with Tween-80.
Setting [11] is: dose: 200.0 mg/kg/injection, schedule: Q01DX001 (ip), vehicle: saline with Tween-80.
Setting [12] is: dose: 200.0 mg/kg/injection, schedule: Q01DX009 (ip), vehicle: saline with Tween-80.
[13] abbreviates: dose: 200.0 mg/kg/injection, schedule: Q04DX002 (ip), vehicle: saline with Tween-80.
The mark [14] stands for this setting: dose: 200.0 mg/kg/injection, schedule: Q04DX003 (ip), vehicle: saline with Tween-80.
The mark [15] stands for this setting: dose: 400.0 mg/kg/injection, schedule: Q04DX002 (ip), vehicle: saline with Tween-80.
Where [16] appears, read: dose: 400.0 mg/kg/injection, schedule: Q04DX003 (ip), vehicle: saline with Tween-80.

This passage reports T/C results from PubChem BioAssay AID248 (DTP/NCI, 2004).

The structures appear in SMILES notation. Several values for one entry are separate records, joined by “and”; a condition that tells them apart may be missing. Equal values may be shown once. Toxic doses and inconclusive results are not listed.

`CN(O)C(N)=O`: the T/C is 160 % of control (dose: 25.0 mg/kg/injection, schedule: Q03HX024 (ip), vehicle: saline); 124 % of control (dose: 35.0 mg/kg/injection, schedule: Q01DX009 (ip), vehicle: saline); 124 % of control (dose: 50.0 mg/kg/injection, schedule: Q03HX024 (ip), vehicle: saline); 108 % of control (dose: 75.0 mg/kg/injection, schedule: Q04DX003 (ip), vehicle: saline); 151 % of control (dose: 100.0 mg/kg/injection, schedule: Q01DX009 (ip), vehicle: saline); 108 % of control (dose: 115.0 mg/kg/injection, schedule: Q04DX003 (ip), vehicle: saline). In addition, the T/C reads like this: (dose: 175.0 mg/kg/injection, schedule: Q04DX003 (ip), vehicle: saline) 119 % of control; (dose: 177.0 mg/kg/injection, schedule: Q01DX009 (ip), vehicle: saline) 152 % of control and 170 % of control; (dose: 200.0 mg/kg/injection, schedule: Q01DX009 (ip), vehicle: saline) 158 % of control; (dose: 265.0 mg/kg/injection, schedule: Q04DX003 (ip), vehicle: saline) 115 % of control; (dose: 266.0 mg/kg/injection, schedule: Q01DX009 (ip), vehicle: saline) 194 % of control; (dose: 267.0 mg/kg/injection, schedule: Q01DX009 (ip), vehicle: saline) 151 % of control. The T/C reads like this: (dose: 400.0 mg/kg/injection, schedule: Q04DX003 (ip), vehicle: saline) 166 % of control; (dose: 500.0 mg/kg/injection, schedule: Q01DX009 (ip), vehicle: saline) 100 % of control; (dose: 800.0 mg/kg/injection, schedule: Q01DX009 (ip), vehicle: saline) 103 % of control; (dose: 900.0 mg/kg/injection, schedule: Q04DX003 (ip), vehicle: saline) 115 % of control.

In the case of `CCCCNC(=O)Nc1ccccc1CC`, the T/C runs as follows: under setting [1], 93 % of control; under setting [2], 95 % of control; under setting [3], 96 % of control; under setting [4], 106 % of control; under setting [5], 93 % of control; under setting [6], 97 % of control.

Regarding `CC(C)(O)C(=O)NCNC(=O)C(C)(C)O`, the T/C is, setting by setting: under setting [1], 102 % of control; under setting [2], 103 % of control; under setting [3], 97 % of control; under setting [4], 103 % of control; under setting [5], 97 % of control; under setting [6], 106 % of control.

`Cc1ccc(Cl)cc1NC(=O)Nc1ccccc1O`: the T/C is, setting by setting: under setting [7], 95 % of control; under setting [8], 94 % of control and 97 % of control; under setting [9], 94 % of control and 95 % of control; under setting [10], 106 % of control; under setting [11], 95 % of control; under setting [12], 94 % of control and 92 % of control. Further, the T/C by setting is: under setting [13], 94 % of control and 106 % of control; under setting [14], 103 % of control; (dose: 400.0 mg/kg/injection, schedule: Q01DX001 (ip), vehicle: saline with Tween-80) 93 % of control; (dose: 400.0 mg/kg/injection, schedule: Q01DX009 (ip), vehicle: saline with Tween-80) 109 % of control and 115 % of control; under setting [15], 93 % of control and 91 % of control; under setting [16], 94 % of control.

With `Cc1ccc(OCCOC(=O)COc2ccc(Cl)cc2Cl)cc1C`, the T/C is, setting by setting: (dose: 100.0 mg/kg/injection, schedule: Q04DX002 (ip), vehicle: Klucel (hydroxypropylcellulose) (HPC)) 102 % of control; (dose: 200.0 mg/kg/injection, schedule: Q04DX002 (ip), vehicle: Klucel (hydroxypropylcellulose) (HPC)) 97 % of control; (dose: 400.0 mg/kg/injection, schedule: Q04DX002 (ip), vehicle: Klucel (hydroxypropylcellulose) (HPC)) 102 % of control.

For `O=C(O)C12C3(Cl)C4(Cl)C5(OCCO5)C5(Cl)C3(Cl)C1(Cl)C5(Cl)C42Cl` (stereo not given), the T/C is 105 % of control (dose: 50.0 mg/kg/injection, schedule: Q01DX001 (ip), vehicle: saline); 102 % of control (dose: 100.0 mg/kg/injection, schedule: Q01DX001 (ip), vehicle: saline); 100 % of control (dose: 200.0 mg/kg/injection, schedule: Q01DX001 (ip), vehicle: saline).

In the case of `CC12CC3CC(C)(C1)CC(SC(=N)N)(C3)C2`, the T/C by setting is: (dose: 10.0 mg/kg/injection, schedule: Q04DX002 (ip), vehicle: Klucel (hydroxypropylcellulose) (HPC)) 97 % of control; (dose: 20.0 mg/kg/injection, schedule: Q04DX002 (ip), vehicle: Klucel (hydroxypropylcellulose) (HPC)) 102 % of control; (dose: 40.0 mg/kg/injection, schedule: Q04DX002 (ip), vehicle: Klucel (hydroxypropylcellulose) (HPC)) 105 % of control.

On to `O=C(Nc1ccc(C2=NCCN2)cc1)Nc1cc(C(=O)Nc2ccc(C3=NCCN3)cc2)ccc1C(=O)Nc1ccc(C2=NCCN2)cc1`, for which the T/C runs as follows: (dose: 7.5 mg/kg/injection, schedule: Q01DX Z (oral), vehicle: saline) 107 % of control; (dose: 15.0 mg/kg/injection, schedule: Q01DX Z (ip), vehicle: saline) 241 % of control; (dose: 15.0 mg/kg/injection, schedule: Q01DX Z (oral), vehicle: saline) 105 % of control; (dose: 30.0 mg/kg/injection, schedule: Q01DX Z (oral), vehicle: saline) 103 % of control; (dose: 60.0 mg/kg/injection, schedule: Q01DX Z (oral), vehicle: saline) 102 % of control; (dose: 62.5 mg/kg/injection, schedule: Q01DX010 (oral), vehicle: saline) 95 % of control. The T/C reads like this: (dose: 75.0 mg/kg/injection, schedule: Q01DX Z (oral), vehicle: saline) 95 % of control; (dose: 125.0 mg/kg/injection, schedule: Q01DX010 (oral), vehicle: saline) 110 % of control; (dose: 250.0 mg/kg/injection, schedule: Q01DX010 (oral), vehicle: saline) 108 % of control; (dose: 500.0 mg/kg/injection, schedule: Q01DX010 (oral), vehicle: saline) 97 % of control.

As for `O=C(Nc1ccc(Nc2ccccc2)cc1)c1ccc(F)cc1`, the T/C (dose: 100.0 mg/kg/injection, schedule: Q01DX009 (ip), vehicle: gum acacia) was 91 % of control; the T/C (dose: 200.0 mg/kg/injection, schedule: Q01DX009 (ip), vehicle: gum acacia) is 96 % of control; the T/C (dose: 400.0 mg/kg/injection, schedule: Q01DX009 (ip), vehicle: gum acacia) is 94 % of control.

In the case of `CC(=O)Nc1nc(NC(C)=O)c2nc(CCN(C)c3ccc(C(=O)O)cc3)cnc2n1`, the T/C is 106 % of control (dose: 75.0 mg/kg/injection, schedule: Q01DX001 (ip), vehicle: saline); 95 % of control under setting [2]; 101 % of control (dose: 150.0 mg/kg/injection, schedule: Q01DX001 (ip), vehicle: saline); 95 % of control under setting [4]; 101 % of control (dose: 300.0 mg/kg/injection, schedule: Q01DX001 (ip), vehicle: saline); 100 % of control under setting [6].

Take `O=C(O)c1ccc(Br)o1`: the T/C under setting [9] was 104 % of control, the T/C under setting [13] was 97 % of control and the T/C under setting [15] was 95 % of control.

For the compound `O=C1OC(c2ccccc2)C=C1Nc1ccccc1` (stereo not given), the T/C was 95 % of control under setting [10], 95 % of control under setting [14] and 91 % of control under setting [16].

With `Cc1ccc(NC(=O)Sc2ccc(Cl)cc2)c([N+](=O)[O-])c1`, the T/C is 109 % of control (dose: 50.0 mg/kg/injection, schedule: Q01DX009 (ip), vehicle: Klucel (hydroxypropylcellulose) (HPC)); 98 % of control under setting [1]; 102 % of control under setting [2]; 106 % of control under setting [3]; 104 % of control under setting [4]; 109 % of control under setting [6].

Regarding `O=C1CS/C(=N/N=C/c2ccccc2)N1`, the T/C is, setting by setting: (dose: 50.0 mg/kg/injection, schedule: Q01DX009 (ip), vehicle: saline with Tween-80) 104 % of control; under setting [8], 91 % of control; under setting [12], 95 % of control.

Regarding `CCCCCCCCC1CCC2C3CCC4CC(C(=O)O)C(C(=O)O)CC4(C)C3CCC12C` (stereo not given), the T/C was 86 % of control under setting [7] and 87 % of control under setting [11].
